# Literature values, collected in patent US20230190754A1, “Therapeutic combinations for the treatment of Progressive Fibrosing interstitial lung diseases” (Boehringer Ingelheim International GmbH, priority 2021, published 2023).
# Test system: PDE4 subtypes, A-D
# Conditions: cited from earlier work
row,SMILES,Preferential enzymatic inhibition among the PDE4 subtypes (in words)
1,O=C(Nc1c(Cl)cncc1Cl)c1ccc(OC(F)F)c(OCC2CC2)c1 [roflumilast],None of these show any preferential enzymatic inhibition
2,CCOc1cc([C@@H](CS(C)(=O)=O)N2C(=O)c3cccc(NC(C)=O)c3C2=O)ccc1OC [apremilast],None of these show any preferential enzymatic inhibition
3,N#Cc1ccc(Oc2ccc3c(c2)COB3O)cc1 [crisaborole],None of these show any preferential enzymatic inhibition
